{"source": "patent US20250339444A1", "about": "“Methods and Compositions for Treating Fatty Liver and Viral Infections” (The Board of Trustees of the Leland Stanford Junior …, priority 2022, published 2025)", "key": {"[1]": {"test_system": "HepG2 cells", "test": "Steatosis in HepG2 cells cultured in fatty medium, Nile Red staining", "assay_type": "cell-based", "description": "Briefly, fatty medium was prepared by 1:1 mixture of oleic acid and palmitic acid (Sigma Aldrich) with 10% FFA-free bovine serum albumin (BSA) solution (Sigma Aldrich) in PBS. Essentially, 100 mM of oleic acid and palmitic acid was prepared in 99% methanol. Palmitic acid was prepared by shaking at 500 rpm 50° C. for 20 mins. 10 mM of oleic acid and palmitic acid was incubated with 10% BSA in PBS at 50° C. for 30 mins. A final concentration of 100 uM FFA mixture was made in the final cell culture medium. Cells were incubated in fatty medium for 4 days to induce fatty liver. Cells were then treated with A27 at various concentrations for 3 days in the presence of the fatty medium. To determine the degree of steatosis, cells were stained with 1 mg/ml Nile Red solution (Sigma Aldrich) in cell culture medium for 15 mins at 37° C. and florescence signal was measured (see FIG. 1)."}, "[2]": {"test_system": "hepatic steatosis in C57/BL6 mice on high fat diet", "test": "Hepatic steatosis in C57/BL6 mice on high fat diet, liver ultrasound", "assay_type": "in vivo", "conditions": "100 mg/kg/day"}, "[3]": {"test_system": "HBV", "test": "Reduction of HBV surface antigen in cells infected with HBV", "assay_type": "cell-based", "conditions": "Hepatitis B virus; cells infected with HBV (FIG. 4: engineered human liver tissue)", "description": "We then discovered that A27 had antiviral activity against HBV, showing reduction in HBV surface antigen in cells infected with HBV with an EC50 of ˜1 μM (FIG. 4)."}, "[4]": {"test_system": "SARS-CoV-2", "test": "microbe, parasite or virus in culture", "assay_type": "cell-based", "conditions": "Severe acute respiratory syndrome coronavirus 2, read-out: EC50, SARS-CoV-2 genome replication"}, "[5]": {"test_system": "SARS-CoV-2", "test": "Combination of A27 with other antivirals against SARS-CoV-2", "assay_type": "cell-based", "from_the_text": "Thus, A27 can be combined with nirmatrelvir or paxlovid."}, "[6]": {"test_system": "Venezuelan equine encephalitis virus (VEEV) TC83 strain", "test": "microbe, parasite or virus in culture", "assay_type": "cell-based", "conditions": "U-87 MG, read-out: EC50, VEEV genome replication"}, "[7]": {"test_system": "PR8 virus (ATCC-VR-1469)", "test": "Influenza PR8 plaque assay in MDCK cells", "assay_type": "cell-based"}, "[8]": {"target": "apolipoprotein B (apoB) (Homo sapiens, UniProt P04114)", "sequence (P04114 28-4563, species assumed)": "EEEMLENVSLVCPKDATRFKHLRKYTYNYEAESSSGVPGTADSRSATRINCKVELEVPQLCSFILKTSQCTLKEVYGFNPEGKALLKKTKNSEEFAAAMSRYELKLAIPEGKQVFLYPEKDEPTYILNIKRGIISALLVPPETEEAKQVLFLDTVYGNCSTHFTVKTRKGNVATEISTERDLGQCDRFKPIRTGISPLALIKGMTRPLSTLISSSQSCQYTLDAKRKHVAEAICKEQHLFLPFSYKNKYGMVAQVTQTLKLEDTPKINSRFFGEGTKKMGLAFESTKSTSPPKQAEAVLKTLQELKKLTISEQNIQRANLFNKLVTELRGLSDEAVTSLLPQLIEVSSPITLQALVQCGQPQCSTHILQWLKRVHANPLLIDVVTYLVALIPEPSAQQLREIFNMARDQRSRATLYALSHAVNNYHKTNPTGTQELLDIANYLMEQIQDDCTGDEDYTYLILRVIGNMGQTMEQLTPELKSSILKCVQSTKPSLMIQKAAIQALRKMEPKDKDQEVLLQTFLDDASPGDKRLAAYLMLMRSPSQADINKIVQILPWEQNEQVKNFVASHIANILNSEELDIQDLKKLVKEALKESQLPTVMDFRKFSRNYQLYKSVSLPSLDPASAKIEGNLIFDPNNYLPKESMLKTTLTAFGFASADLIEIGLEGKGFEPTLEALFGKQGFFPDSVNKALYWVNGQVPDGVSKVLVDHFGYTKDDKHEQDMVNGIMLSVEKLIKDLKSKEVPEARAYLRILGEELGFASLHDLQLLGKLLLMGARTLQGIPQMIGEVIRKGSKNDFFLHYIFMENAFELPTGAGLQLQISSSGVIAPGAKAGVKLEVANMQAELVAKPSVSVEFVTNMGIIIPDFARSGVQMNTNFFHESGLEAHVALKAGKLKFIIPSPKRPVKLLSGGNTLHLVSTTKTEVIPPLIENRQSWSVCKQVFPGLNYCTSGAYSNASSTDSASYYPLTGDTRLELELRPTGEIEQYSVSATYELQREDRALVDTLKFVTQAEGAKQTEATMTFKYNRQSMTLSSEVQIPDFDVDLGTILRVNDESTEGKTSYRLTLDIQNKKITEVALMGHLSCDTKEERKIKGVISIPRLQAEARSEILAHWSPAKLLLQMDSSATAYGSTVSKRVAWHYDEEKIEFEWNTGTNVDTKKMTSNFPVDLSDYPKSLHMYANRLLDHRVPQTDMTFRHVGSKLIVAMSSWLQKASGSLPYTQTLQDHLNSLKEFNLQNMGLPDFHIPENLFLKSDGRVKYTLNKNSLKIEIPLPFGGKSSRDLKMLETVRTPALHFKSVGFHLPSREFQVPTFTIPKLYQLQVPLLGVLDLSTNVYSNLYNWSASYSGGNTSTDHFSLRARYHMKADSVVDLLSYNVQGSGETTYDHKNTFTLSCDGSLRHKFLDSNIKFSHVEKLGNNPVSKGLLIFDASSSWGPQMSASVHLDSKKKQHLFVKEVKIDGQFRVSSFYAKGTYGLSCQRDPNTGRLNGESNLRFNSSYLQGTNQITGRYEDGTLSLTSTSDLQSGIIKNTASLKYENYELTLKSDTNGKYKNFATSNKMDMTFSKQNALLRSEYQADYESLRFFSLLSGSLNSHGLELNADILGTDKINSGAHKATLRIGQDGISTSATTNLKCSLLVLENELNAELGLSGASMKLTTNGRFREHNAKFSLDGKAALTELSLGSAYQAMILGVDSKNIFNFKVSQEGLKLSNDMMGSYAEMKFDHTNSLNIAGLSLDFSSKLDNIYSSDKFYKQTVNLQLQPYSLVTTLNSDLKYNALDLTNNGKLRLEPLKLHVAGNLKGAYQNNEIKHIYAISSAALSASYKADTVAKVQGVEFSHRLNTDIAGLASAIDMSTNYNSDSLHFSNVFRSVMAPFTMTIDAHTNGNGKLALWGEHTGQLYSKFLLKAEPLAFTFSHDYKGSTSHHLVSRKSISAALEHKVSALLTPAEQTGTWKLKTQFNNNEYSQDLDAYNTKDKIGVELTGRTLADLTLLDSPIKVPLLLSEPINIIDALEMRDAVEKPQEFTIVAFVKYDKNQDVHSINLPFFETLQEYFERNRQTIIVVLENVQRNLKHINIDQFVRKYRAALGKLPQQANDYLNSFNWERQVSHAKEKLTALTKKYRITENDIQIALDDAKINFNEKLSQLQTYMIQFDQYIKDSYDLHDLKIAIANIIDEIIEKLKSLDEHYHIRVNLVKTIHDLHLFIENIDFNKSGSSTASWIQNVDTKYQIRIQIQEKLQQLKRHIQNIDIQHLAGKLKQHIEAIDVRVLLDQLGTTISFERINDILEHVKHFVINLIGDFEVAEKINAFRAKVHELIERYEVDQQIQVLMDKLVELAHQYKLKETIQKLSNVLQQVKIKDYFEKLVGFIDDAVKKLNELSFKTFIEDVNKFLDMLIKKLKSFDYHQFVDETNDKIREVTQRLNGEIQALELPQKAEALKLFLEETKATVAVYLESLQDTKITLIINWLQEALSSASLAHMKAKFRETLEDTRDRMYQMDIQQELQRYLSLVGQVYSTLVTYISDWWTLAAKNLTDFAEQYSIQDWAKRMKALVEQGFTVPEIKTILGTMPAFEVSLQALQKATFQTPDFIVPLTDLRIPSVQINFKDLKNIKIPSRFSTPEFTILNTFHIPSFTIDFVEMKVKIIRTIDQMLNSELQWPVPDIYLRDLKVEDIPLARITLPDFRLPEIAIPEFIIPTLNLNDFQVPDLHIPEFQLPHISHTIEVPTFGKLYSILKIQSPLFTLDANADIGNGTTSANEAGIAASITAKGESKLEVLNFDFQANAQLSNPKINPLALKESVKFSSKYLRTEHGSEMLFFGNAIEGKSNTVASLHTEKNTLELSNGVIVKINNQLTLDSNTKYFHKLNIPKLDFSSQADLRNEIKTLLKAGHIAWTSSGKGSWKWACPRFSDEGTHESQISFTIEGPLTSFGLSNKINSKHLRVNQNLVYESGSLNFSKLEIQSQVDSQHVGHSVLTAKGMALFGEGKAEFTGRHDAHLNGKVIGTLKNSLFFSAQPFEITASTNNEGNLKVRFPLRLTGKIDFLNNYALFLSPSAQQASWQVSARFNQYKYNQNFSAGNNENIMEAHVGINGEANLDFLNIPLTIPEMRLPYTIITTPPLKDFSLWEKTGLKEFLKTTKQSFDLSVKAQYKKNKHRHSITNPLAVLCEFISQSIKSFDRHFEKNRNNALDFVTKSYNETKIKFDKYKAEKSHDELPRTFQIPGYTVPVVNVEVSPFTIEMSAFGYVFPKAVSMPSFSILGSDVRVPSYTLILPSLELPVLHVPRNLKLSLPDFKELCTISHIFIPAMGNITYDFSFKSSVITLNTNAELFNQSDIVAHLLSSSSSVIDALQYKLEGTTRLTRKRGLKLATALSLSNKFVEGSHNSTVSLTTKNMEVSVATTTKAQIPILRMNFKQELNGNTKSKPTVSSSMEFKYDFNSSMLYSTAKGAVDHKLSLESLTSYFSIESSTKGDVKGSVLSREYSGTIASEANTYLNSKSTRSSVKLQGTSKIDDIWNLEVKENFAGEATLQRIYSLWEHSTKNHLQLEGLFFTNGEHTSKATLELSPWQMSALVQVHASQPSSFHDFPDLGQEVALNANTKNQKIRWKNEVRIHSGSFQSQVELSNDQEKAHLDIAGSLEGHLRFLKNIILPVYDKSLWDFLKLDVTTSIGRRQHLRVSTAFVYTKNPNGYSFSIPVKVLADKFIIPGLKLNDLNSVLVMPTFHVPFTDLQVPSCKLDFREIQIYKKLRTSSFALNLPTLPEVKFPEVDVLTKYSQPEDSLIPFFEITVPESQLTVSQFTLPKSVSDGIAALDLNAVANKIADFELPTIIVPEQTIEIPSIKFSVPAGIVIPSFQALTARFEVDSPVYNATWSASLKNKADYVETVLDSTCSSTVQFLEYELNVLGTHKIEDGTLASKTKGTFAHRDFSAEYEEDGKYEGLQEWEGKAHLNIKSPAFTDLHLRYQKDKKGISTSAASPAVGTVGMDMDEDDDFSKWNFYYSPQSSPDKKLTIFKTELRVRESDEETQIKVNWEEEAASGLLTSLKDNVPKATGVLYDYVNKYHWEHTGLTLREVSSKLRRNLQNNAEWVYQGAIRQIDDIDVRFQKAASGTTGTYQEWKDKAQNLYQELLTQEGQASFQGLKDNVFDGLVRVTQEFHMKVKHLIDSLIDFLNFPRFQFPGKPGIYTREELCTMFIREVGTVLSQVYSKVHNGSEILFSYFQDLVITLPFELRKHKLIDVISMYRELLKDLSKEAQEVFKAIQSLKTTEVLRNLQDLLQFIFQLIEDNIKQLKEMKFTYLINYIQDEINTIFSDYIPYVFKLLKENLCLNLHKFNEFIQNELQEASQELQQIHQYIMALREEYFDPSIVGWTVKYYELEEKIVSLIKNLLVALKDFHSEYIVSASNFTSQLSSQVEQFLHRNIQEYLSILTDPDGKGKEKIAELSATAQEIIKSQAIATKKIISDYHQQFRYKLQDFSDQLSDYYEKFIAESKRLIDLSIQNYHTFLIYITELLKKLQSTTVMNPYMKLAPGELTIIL", "test": "Binding to apolipoprotein B"}, "[9]": {"test_system": "U87-MG cells"}, "[10]": {"test_system": "TMPRSS2-ACE2-Huh7.5 cells", "test": "Toxicity in the SARS-CoV-2 cell culture assay", "conditions": "SARS-CoV-2 assay"}, "[11]": {"test_system": "RSV-luc5 virus", "test": "RSV-luc5 luciferase replication assay in HeLa cells", "conditions": "human respiratory syncytial virus, 72 h, read-out: EC50, RSV replication"}}, "data": [{"smiles": "Cn1nc(C(=O)NC2CCN(CCN3CCCC3)CC2)c2ccc(N3CCCCCC3)nc21", "note": "[Compound A27]", "values": [{"measurement": "lipid accumulation (Nile Red fluorescence)", "setting": "[1]; HepG2 cells, A27 at various concentrations for 3 days in fatty medium", "value": "dose-dependent decrease in lipid accumulation"}, {"measurement": "EC50", "setting": "[1]; Homo sapiens, HepG2, 72 h, read-out: half effective concentration (EC50), inhibition of formation of steatosis", "value": "~500", "unit": "nM"}, {"measurement": "tolerability in mice", "setting": "[2]; 4 weeks", "value": "tolerated A27 well"}, {"measurement": "hepatic steatosis measured by liver ultrasound", "setting": "[2]; high fat diet for 4 weeks, versus vehicle", "value": "reduces hepatic steatosis"}, {"measurement": "EC50", "setting": "[3]", "value": "~1000", "unit": "nM"}, {"measurement": "EC50", "setting": "[4]", "value": 803, "unit": "nM"}, {"measurement": "combination effect with polymerase inhibitor nucleoside analog", "setting": "[5]; with a polymerase inhibitor nucleoside analog (e.g. EIDD2801)", "value": "additive"}, {"measurement": "combination effect with protease inhibitors", "setting": "[5]; with protease inhibitors against SARS-CoV-2 (e.g. PF-07321332)", "value": "synergistic"}, {"measurement": "EC50", "setting": "[6]", "value": 7900, "unit": "nM"}, {"measurement": "plaque size compared to oseltamivir treated wells", "setting": "[7]", "value": "smaller-sized plaques"}, {"measurement": "binding to apolipoprotein B (apoB)", "setting": "[8]", "value": "can bind"}, {"measurement": "toxicity", "setting": "[9]", "value": "without any evidence of toxicity"}, {"measurement": "toxicity", "setting": "[10]", "value": "without any evidence of toxicity"}, {"measurement": "EC50", "setting": "[11]", "value": 1100, "unit": "nM"}]}]}
